Assay results as given in BindingDB's records for doi:10.1021/acs.jmedchem.8b01906 (Siteone Therapeutics, 2019).

Assay: Binding affinity to human recombinant Nav1.7 by radioligand binding assay

Structure (SMILES)	Kd [µM]
Cc1nn([C@@H]2CCN([C@H](C)c3cc(Cl)cc(Cl)c3)C2)c2cc(F)c(C(=O)NS(=O)(=O)C3CC3)cc12	0.022
CS(=O)(=O)NC(=O)c1cc(C2CC2)c(OCC2CCN(Cc3cc(C(F)(F)F)ccc3Cl)CC2)cc1F [US9546164, 580]	0.0035
